Patent US12036312B2, “Non-aqueous topical compositions comprising a halogenated salicylanilide” (priority 2016, dated 2024)
≈ marks a conversion by molar mass, not a printed value. Read-outs that look alike come from different tables or passages of the source.

What was measured:
S. aureus = assay: MIC assay according to CLSI criteria, Example 2, S. aureus strains; type: cell-based, Staphylococcus aureus; conditions: Staphylococcus aureus, read-out: MIC
In short: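 Broth microdilution per CLSI in cation-adjusted Mueller Hinton broth, ~5×10^5 exponential-phase cells per well, aerobic at 37° C for 18 hours; OD600 read at end.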

P. acnes = type: cell-based, Propionibacterium acnes; conditions: for Frequency of mutation/ml: MIC × 4
[1] = tested on: methicillin-resistant Staphylococcus aureus (MRSA 01, MRSA 15, MRSA 16); assay: Resistance mutation frequency evaluation, Example 3; type: cell-based

Compound: CC(=O)O[C@H]1C[C@@]2(C)[C@@H](C[C@@H](O)[C@H]3[C@@]4(C)CC[C@@H](O)[C@@H](C)[C@@H]4CC[C@@]32C)/C1=C(\CCC=C(C)C)C(=O)O [Fusidic acid, fusidic acid]
- MIC (S. aureus; MRSA, strain MRSA 01): 0.125 µg/mL (≈ 0.242 µM)
- MIC (S. aureus; MRSA, strain MRSA 02): 0.5 µg/mL (≈ 0.968 µM)
- MIC (S. aureus; MRSA, strain MRSA 03): 16 µg/mL (≈ 31 µM)
- MIC (S. aureus; MRSA, strain MRSA 04): 0.25 µg/mL (≈ 0.484 µM)
- MIC (S. aureus; MRSA, strain MRSA 05): 0.125 µg/mL (≈ 0.242 µM)
- MIC (S. aureus; MRSA, strain MRSA 06): 0.125 µg/mL (≈ 0.242 µM)
- MIC (S. aureus; MRSA, strain MRSA 07): 0.25 µg/mL (≈ 0.484 µM)
- MIC (S. aureus; MRSA, strain MRSA 08): 0.125 µg/mL (≈ 0.242 µM)
- MIC (S. aureus; MRSA, strain MRSA 09): 0.25 µg/mL (≈ 0.484 µM)
- MIC (S. aureus; MRSA, strain MRSA 10): 1 µg/mL (≈ 1.94 µM)
- MIC (S. aureus; MRSA, strain MRSA 11): 1 µg/mL (≈ 1.94 µM)
- MIC (S. aureus; MRSA, strain MRSA 12): 4 µg/mL (≈ 7.74 µM)
- MIC (S. aureus; MRSA, strain MRSA 14): > 16 µg/mL
- MIC (S. aureus; MRSA, strain MRSA 16): 0.25 µg/mL (≈ 0.484 µM)
- MIC (S. aureus; MRSA, strain MRSA 18): 0.25 µg/mL (≈ 0.484 µM)
- MIC (S. aureus; MRSA, strain MRSA 19): 0.125 µg/mL (≈ 0.242 µM)
- MIC (S. aureus; MRSA, strain MRSA 20): 0.125 µg/mL (≈ 0.242 µM)
- MIC (S. aureus; MRSA, strain MRSA 21): 0.125 µg/mL (≈ 0.242 µM)
- MIC (S. aureus; MRSA, strain MRSA 23): 0.25 µg/mL (≈ 0.484 µM)
- MIC (S. aureus; MRSA, strain MRSA 24): 0.25 µg/mL (≈ 0.484 µM)
- MIC (S. aureus; MRSA, strain MRSA 25): 16 µg/mL (≈ 31 µM)
- MIC (S. aureus; MRSA, strain MRSA 26): 0.5 µg/mL (≈ 0.968 µM)
- MIC (S. aureus; MRSA, strain MRSA 27): 0.25 µg/mL (≈ 0.484 µM)
- MIC (S. aureus; MRSA, strain MRSA 30): 0.125 µg/mL (≈ 0.242 µM)
- MIC (S. aureus; MRSA, strain MRSA 31): 0.25 µg/mL (≈ 0.484 µM)
- MIC (S. aureus; MRSA, strain MRSA 32): 0.5 µg/mL (≈ 0.968 µM)
- MIC (S. aureus; MRSA, strain MRSA 33): 0.5 µg/mL (≈ 0.968 µM)
- MIC (S. aureus; MRSA, strain MRSA 34): 0.25 µg/mL (≈ 0.484 µM)
- MIC (S. aureus; MRSA, strain MRSA 35): 16 µg/mL (≈ 31 µM)
- MIC (S. aureus; MRSA, strain MRSA 36): 8 µg/mL (≈ 15.5 µM)
- MIC (S. aureus; MRSA, strain MRSA 37): 0.5 µg/mL (≈ 0.968 µM)
- MIC (S. aureus; MRSA, strain MRSA 38): 8 µg/mL (≈ 15.5 µM)
- MIC (S. aureus; MRSA, strain MRSA 39): 8 µg/mL (≈ 15.5 µM)
- MIC (S. aureus; MRSA, strain MRSA 40): 0.125 µg/mL (≈ 0.242 µM)
- MIC (S. aureus; MRSA, strain MRSA 42): 0.25 µg/mL (≈ 0.484 µM)
- MIC (S. aureus; MRSA, strain MRSA 49): 0.25 µg/mL (≈ 0.484 µM)
- MIC (S. aureus; MRSA, strain MRSA 50): 0.03 µg/mL (≈ 0.0581 µM)
- MIC (S. aureus; MRSA, strain MRSA 53): 0.25 µg/mL (≈ 0.484 µM)
- MIC (S. aureus; MRSA, strain MRSA 64): 0.25 µg/mL (≈ 0.484 µM)
- MIC (S. aureus; MRSA, strain MRSA 67): 0.25 µg/mL (≈ 0.484 µM)
- MIC (S. aureus; MRSA, strain MRSA 72): 16 µg/mL (≈ 31 µM)
- MIC (S. aureus; MRSA, strain MRSA 73): 0.25 µg/mL (≈ 0.484 µM)
- MIC (S. aureus; MRSA, strain MRSA 74): 0.25 µg/mL (≈ 0.484 µM)
- MIC (S. aureus; MRSA, strain MRSA 75): 0.5 µg/mL (≈ 0.968 µM)
- MIC (S. aureus; MRSA, strain MRSA 76): 0.25 µg/mL (≈ 0.484 µM)
- MIC (S. aureus; MRSA, strain MRSA 77): 16 µg/mL (≈ 31 µM)
- MIC (S. aureus; MRSA, strain MRSA 79): 0.5 µg/mL (≈ 0.968 µM)
- MIC (S. aureus; MRSA, strain MRSA 81): 0.25 µg/mL (≈ 0.484 µM)
- MIC (S. aureus; MRSA, strain MRSA 85): 4 µg/mL (≈ 7.74 µM)
- MIC (S. aureus; MRSA, strain MRSA 86): > 16 µg/mL
- MIC (S. aureus; MRSA, strain MRSA 87): 0.125 µg/mL (≈ 0.242 µM)
- MIC (S. aureus; MRSA, strain MRSA 88): 0.06 µg/mL (≈ 0.116 µM)
- MIC (S. aureus; MRSA, strain MRSA 90): 16 µg/mL (≈ 31 µM)
- MIC (S. aureus; MRSA, strain MRSA 91): 0.25 µg/mL (≈ 0.484 µM)
- MIC (S. aureus; MRSA, strain MRSA 92): 8 µg/mL (≈ 15.5 µM)
- MIC (S. aureus; MRSA, strain MRSA 94): 0.125 µg/mL (≈ 0.242 µM)
- MIC (S. aureus; MRSA, strain MRSA 95): 8 µg/mL (≈ 15.5 µM)
- MIC (S. aureus; MRSA, strain MRSA 96): 0.125 µg/mL (≈ 0.242 µM)
- MIC (S. aureus; MRSA, strain MRSA 97): 8 µg/mL (≈ 15.5 µM)
- MIC (S. aureus; MRSA, strain MRSA 99): 0.125 µg/mL (≈ 0.242 µM)
- MIC (S. aureus; MRSA, strain MRSA 100): 0.125 µg/mL (≈ 0.242 µM)
- MIC (S. aureus; MRSA, strain MRSA 101): 8 µg/mL (≈ 15.5 µM)
- MIC (S. aureus; MRSA, strain MRSA 103): 8 µg/mL (≈ 15.5 µM)
- MIC (S. aureus; MRSA, strain MRSA 104): 0.25 µg/mL (≈ 0.484 µM)
- MIC (S. aureus; MRSA, strain MRSA 105): 0.125 µg/mL (≈ 0.242 µM)
- MIC (S. aureus; MRSA, strain MRSA 106): 0.125 µg/mL (≈ 0.242 µM)
- MIC (S. aureus; MRSA, strain MRSA 107): 0.25 µg/mL (≈ 0.484 µM)
- MIC (S. aureus; MRSA, strain MRSA 108): 4 µg/mL (≈ 7.74 µM)
- MIC (S. aureus; MRSA, strain MRSA 109): 0.25 µg/mL (≈ 0.484 µM)
- MIC (S. aureus; MRSA, strain MRSA 111): 8 µg/mL (≈ 15.5 µM)
- MIC (S. aureus; MRSA, strain MRSA 113): 0.125 µg/mL (≈ 0.242 µM)
- MIC (S. aureus; MSSA, strain MSSA 01): 4 µg/mL (≈ 7.74 µM)
- MIC (S. aureus; MSSA, strain MSSA 02): 4 µg/mL (≈ 7.74 µM)
- MIC (S. aureus; NEWMAN, strain Newman): 0.25 µg/mL (≈ 0.484 µM)
- frequency of mutation of resistance (P. acnes; P. acnes): ~1×10^−8
- Frequency of mutation/ml (P. acnes; P. acnes strain 998): 9.17e-08 mL⁻¹
- Frequency of mutation/ml (P. acnes; P. acnes strain 1044): 7.21e-08 mL⁻¹
- Frequency of mutation/ml (P. acnes; P. acnes strain CSS3023): 1.82e-08 mL⁻¹
- Frequency of mutation/ml (P. acnes; P. acnes strain CSS3288): 6.15e-08 mL⁻¹
- mutational frequency ([1]; at MIC×1): ≥ 4.10^−5
- mutational frequency ([1]; at MIC×10): 3.10^−7
